# Test system: AsPC-1 cells
# Experiment: MTT cellular proliferation assay, AsPC-1 pancreatic adenocarcinoma cells
# Type: cell-based, human
# Settings: AsPC-1, 24 h, 37 °C, MTT, mean ± SD (3 experiments)
# Protocol: The anti-proliferative activity of Dp4e4mT relative to its complexes with Fe(III), Co(III), Ni(II), Cu(II), Zn(II), Ga(III), and Pd(II) was examined over incubation periods of 24-, 48-, and 72 h/37 °C (Table 2). These studies were performed using human SK-N-MC neuroepithelioma and AsPC-1 pancreatic adenocarcinoma cells that we have previously examined to assay other ligands.[15,28,43] […]
# All cell lines were procured from the American Type Culture Collection (ATCC; Manassas, VA). The SK-N-MC neuroepithelioma cell line and the mortal MRC-5 fibroblasts were cultured in minimum essential medium (Sigma-Aldrich), while the AsPC-1 cell line was cultured in Roswell Park Memorial Institute 1640 medium (Thermo Fisher Scientific, MA, USA). Both media were supplemented with 10% fetal calf serum, non-essential amino acids (1 mM), sodium pyruvate (1 mM), L-glutamine (2 mM), penicillin (100 U/mL), streptomycin (100 U/mL), and Fungizone (0.5 µg/mL). Cells were maintained at 37 °C in an incubator under a humidified atmosphere with 5% CO 2, following established protocols. 11 Cellular Proliferation Assay
# Cellular proliferation was evaluated through the established 3-(4,5-dimethylthiazol-2-yl)-2,5-diphenyltetrazolium bromide (MTT) proliferation assay, validated by viable cell counts.12 […]
# Ligands and complexes were dissolved in DMSO to make a stock solution of 10 mM, subsequently diluted in culture media. For cell culture experiments, the DMSO's maximum concentration remained below 0.5% (v/v), with no discernible impact on proliferation.12 MTT […]
# Trypan blue staining.12 Analysis of the data was executed employing MARS Data Analysis Software (BMG LabTech; version 3.30). The concentration of agents necessary to inhibit cellular proliferation by 50% (IC 50) was then calculated. […]
row,IC50,SMILES
1,22.38 ± 0.058 µM,CCN(C)C([S-])=NN=C(c1ccccn1)c1ccccn1.CCN(C)C([S-])=NN=C(c1ccccn1)c1ccccn1.[Fe+3] [[Fe(Dp4e4mT)2]^+]

# Same assay, conditions: AsPC-1, 48 h, 37 °C, MTT, mean ± SD (3 experiments)
row,IC50,SMILES
1,1.58 ± 0.077 µM,CCN(C)C([S-])=NN=C(c1ccccn1)c1ccccn1.CCN(C)C([S-])=NN=C(c1ccccn1)c1ccccn1.[Fe+3] [[Fe(Dp4e4mT)2]^+]

# Same assay, conditions: AsPC-1, 72 h, 37 °C, MTT, mean ± SD (3 experiments)
row,IC50,SMILES
1,0.201 ± 0.031 µM,CCN(C)C([S-])=NN=C(c1ccccn1)c1ccccn1.CCN(C)C([S-])=NN=C(c1ccccn1)c1ccccn1.[Fe+3] [[Fe(Dp4e4mT)2]^+]

# Same assay, conditions: Homo sapiens, ASPC1; AsPC-1, 24 h, 37 °C, MTT, mean ± SD (3 experiments)
row,IC50,SMILES
1,4.921 ± 0.034 µM,"CN(C(=S)NN=C(c1ccccn1)c1ccccn1)C1CCCCC1 [DpC, di-2-pyridylketone 4-cyclohexyl-4-methyl-3-thiosemicarbazone, reference compound]"
2,4.64 ± 0.071 µM,"CN(C)C(=S)NN=C(c1ccccn1)c1ccccn1 [Dp44mT, di-2-pyridylketone 4,4-dimethyl-3-thiosemicarbazone, reference compound]"
3,3.78 ± 0.091 µM,"CCN(C)C(=S)NN=C(c1ccccn1)c1ccccn1 [Dp4e4mT, di-2-pyridylketone-4-ethyl-4-methyl-3-thiosemicarbazone]"

# Same assay, conditions: Homo sapiens, ASPC1; AsPC-1, 48 h, 37 °C, MTT, mean ± SD (3 experiments)
row,IC50,SMILES
1,0.087 ± 0.034 µM,"CN(C(=S)NN=C(c1ccccn1)c1ccccn1)C1CCCCC1 [DpC, di-2-pyridylketone 4-cyclohexyl-4-methyl-3-thiosemicarbazone, reference compound]"
2,0.042 ± 0.006 µM,"CN(C)C(=S)NN=C(c1ccccn1)c1ccccn1 [Dp44mT, di-2-pyridylketone 4,4-dimethyl-3-thiosemicarbazone, reference compound]"
3,0.045 ± 0.008 µM,"CCN(C)C(=S)NN=C(c1ccccn1)c1ccccn1 [Dp4e4mT, di-2-pyridylketone-4-ethyl-4-methyl-3-thiosemicarbazone]"

# Same assay, conditions: Homo sapiens, ASPC1; AsPC-1, 72 h, 37 °C, MTT, mean ± SD (3 experiments)
row,IC50,SMILES
1,0.018 ± 0.007 µM,"CN(C(=S)NN=C(c1ccccn1)c1ccccn1)C1CCCCC1 [DpC, di-2-pyridylketone 4-cyclohexyl-4-methyl-3-thiosemicarbazone, reference compound]"
2,0.015 ± 0.003 µM,"CN(C)C(=S)NN=C(c1ccccn1)c1ccccn1 [Dp44mT, di-2-pyridylketone 4,4-dimethyl-3-thiosemicarbazone, reference compound]"
3,0.009 ± 0.002 µM,"CCN(C)C(=S)NN=C(c1ccccn1)c1ccccn1 [Dp4e4mT, di-2-pyridylketone-4-ethyl-4-methyl-3-thiosemicarbazone]"

# Same assay, conditions: IC50 of MRC-5 cells/IC50 of AsPC-1 cells, 72 h/37 °C
row,SMILES,Therapeutic index AsPC-1
1,CCN(C)C([S-])=NN=C(c1ccccn1)c1ccccn1.CCN(C)C([S-])=NN=C(c1ccccn1)c1ccccn1.[Zn+2] [[Zn(Dp4e4mT)2]],125
2,"CN(C(=S)NN=C(c1ccccn1)c1ccccn1)C1CCCCC1 [DpC, di-2-pyridylketone 4-cyclohexyl-4-methyl-3-thiosemicarbazone, reference compound]",165
3,"CN(C)C(=S)NN=C(c1ccccn1)c1ccccn1 [Dp44mT, di-2-pyridylketone 4,4-dimethyl-3-thiosemicarbazone, reference compound]",71
4,"CCN(C)C(=S)NN=C(c1ccccn1)c1ccccn1 [Dp4e4mT, di-2-pyridylketone-4-ethyl-4-methyl-3-thiosemicarbazone]",120
5,CCN(C)C([S-])=NN=C(c1ccccn1)c1ccccn1.CCN(C)C([S-])=NN=C(c1ccccn1)c1ccccn1.[Fe+3] [[Fe(Dp4e4mT)2]^+],9

# Test system: not listed separately
# Experiment: Transmetallation kinetics with Cu(OAc)2 in DMSO (time-resolved UV-vis)
# Type: physicochemical
# Settings: 10-fold excess of Cu(OAc)2 in DMSO, 25 °C
# Protocol: The capacity of the Fe(III), Ni(II), Co(III), Zn(II), Ga(III), and Pd(II) complexes of Dp4e4mT to transmetallate with Cu(II) and/or Fe(III) to result in redox active Cu(II) and Fe(III) complexes could be critical in understanding their anti-proliferative efficacy, redox activity, and ability to oxidize oxy-Mb and oxy-Hb. To examine this, LC-MS spectrometry was performed in DMSO after the addition of 1 equivalent of FeCl3 or Cu(OAc)2 and the solutions then incubated for 24 h/20 °C due to slow reaction kinetics. This solution was then diluted 1 : 1 in methanol and LC-MS performed using a mobile phase consisting of 90% MeOH, 9.9% water, and 0.1% formic acid (Fig. S2–S9 ^†). These investigations were supported by EPR studies in DMSO after the addition of 1 equivalent of FeCl3 or Cu(OAc)2 incubated under the same conditions (Fig. 3A–G). As a third method to investigate transmetallation, kinetic studies using time-resolved UV-vis spectroscopy were performed under pseudo-first order conditions with a 10-fold excess of FeCl3 or Cu(OAc)2 in DMSO (Fig. S11–S16 ^†). The pseudo-first order rate constants were calculated from the time-dependent UV-vis spectroscopy data (at all wavelengths) with Reactlab Kinetics[49] and collected in Table S2. ^† […]
# Time-dependent UV-Vis absorption spectra were measured on an Agilent 8453 diode array UV−Vis spectrophotometer, equipped with a thermostatted (± 0.1 °C) multicell transport cooled by a Huber Ministat 230 recirculating cooling bath. Spectral analysis was carried out with Reactlab Kinetics. 10 […]
# Table S2. Observed pseudo first order rate constants (k obs, s−1) for reactions of each Dp4e4mT complex with a 10-fold excess of Cu(OAc) 2 or FeCl 3 in DMSO or water (pH 7.4 or 5.0) at 25 °C. […]
# [Co(Dp4e4mT)2]+ No reaction No reaction No reaction No reaction […]
# a Reaction could not be deciphered by UV-Vis spectroscopy; bchlorido ligand hydrolysis
row,SMILES,"Observed pseudo first order rate constant kobs, Cu(OAc)2 (only or first step)"
1,CCN(C)C([S-])=NN=C(c1ccccn1)c1ccccn1.CCN(C)C([S-])=NN=C(c1ccccn1)c1ccccn1.[Zn+2] [[Zn(Dp4e4mT)2]],> 0.1 s⁻¹

# Same assay, conditions: Cu(OAc)2 in DMSO, first of two consecutive first order steps
row,"t½, reaction with Cu(OAc)2, first step",SMILES
1,~6 min,CCN(C)C([S-])=NN=C(c1ccccn1)c1ccccn1.CCN(C)C([S-])=NN=C(c1ccccn1)c1ccccn1.[Fe+3] [[Fe(Dp4e4mT)2]^+]

# Same assay, conditions: Cu(OAc)2 in DMSO, second of two consecutive first order steps
row,"t½, reaction with Cu(OAc)2, second step",SMILES
1,~60 min,CCN(C)C([S-])=NN=C(c1ccccn1)c1ccccn1.CCN(C)C([S-])=NN=C(c1ccccn1)c1ccccn1.[Fe+3] [[Fe(Dp4e4mT)2]^+]

# Target: T1, oxy-Hb in intact human erythrocytes (Homo sapiens, UniProt P68871+P69905)
# T1 construct: Physiologically, oxy-Hb is found in erythrocytes; endogenous in cells; host or cells: intact human erythrocytes from fresh blood of healthy donors
# Experiment: Oxidation of oxy-Hb in intact human erythrocytes
# Type: cell-based
# Settings: 10 μM, 3 h/37 °C
# Protocol: Fig. 7 (A and B) Investigation of the effects of Dp4e4mT and its Fe(III), Co(III), Ni(II), Cu(II), Zn(II), Ga(III), and Pd(II) complexes versus DFO, Dp44mT, DpC and their Fe(III) complexes (10 μM) on met-Hb generation (% zero time) after an incubation of 1–3 h/20 °C with purified oxy-Hb (40 μM). (C) Investigation of the effects of Dp4e4mT and its Fe(III), Co(III), Ni(II), Cu(II), Zn(II), Ga(III), or Pd(II) complexes relative to the positive controls DFO, Dp44mT, DpC, and their Fe(III) complexes (10 μM) on oxy-Hb oxidation in intact human erythrocytes after a 3 h/37 °C incubation. Results are mean ± SD (3 experiments).
# Physiologically, oxy-Hb is found in erythrocytes, and in the current investigation, the ligands and complexes (10 μM) were incubated with intact human erythrocytes for 3 h/37 °C to assess their effects on oxy-Hb oxidation (Fig. 7C). As expected from our previous studies,[28,39] […]
# In experiments examining the activity of the agents, all complexes were dissolved in 1,2-propanediol, then diluted to 10 µM in PBS (pH 7.2). […]
# 1800; Shimadzu, Kyoto, Japan). Concentrations of met-Mb and met-Hb, as well as reduced-Mb and reduced-Hb, were determined at 409 nm and 435 nm, respectively. Concentrations of oxy-Mb and oxy-Hb were determined at 544 nm and 582 nm, respectively. 17 Oxidation of Oxy-Hb in Human Erythrocytes
# Oxidation of oxy-Hb in human erythrocytes was performed by standard methods using fresh blood from healthy donors after collection in Vacutainer® collection tubes (BD, Plymouth, UK).8 Erythrocytes centrifuged (480 xg/5 min/4°C) and then washed in HBSS, and subsequently resuspended in this buffer. Incubation of the erythrocytes (15% hematocrit) in the absence or presence of the agents (10 μM) was performed for 3 h/37°C. The erythrocytes were […]
# T1 sequence (P69905 2-142 limits assumed): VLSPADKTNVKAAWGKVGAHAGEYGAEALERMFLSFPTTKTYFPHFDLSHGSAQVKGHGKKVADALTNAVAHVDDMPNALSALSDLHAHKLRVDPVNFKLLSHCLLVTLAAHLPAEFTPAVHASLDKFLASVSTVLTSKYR
# T1 sequence (P68871 2-147 limits assumed): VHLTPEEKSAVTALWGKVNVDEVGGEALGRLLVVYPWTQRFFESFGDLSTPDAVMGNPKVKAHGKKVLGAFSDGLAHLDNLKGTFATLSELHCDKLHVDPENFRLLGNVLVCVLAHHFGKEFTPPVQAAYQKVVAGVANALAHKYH
row,SMILES,oxy-Hb oxidation in erythrocytes versus the control (in words)
1,CCN(C)C([S-])=NN=C(c1ccccn1)c1ccccn1.CCN(C)C([S-])=NN=C(c1ccccn1)c1ccccn1.[Zn+2] [[Zn(Dp4e4mT)2]],negligible effects on oxy-Hb oxidation
2,"CN(C(=S)NN=C(c1ccccn1)c1ccccn1)C1CCCCC1 [DpC, di-2-pyridylketone 4-cyclohexyl-4-methyl-3-thiosemicarbazone, reference compound]",did not induce any significant (p > 0.05) increase in oxy-Hb oxidation

# Same assay, conditions: 10 μM, 3 h/37 °C, control 0.5%
row,oxy-Hb oxidation to met-Hb in erythrocytes,SMILES
1,2.3 % of the total,"CN(C)C(=S)NN=C(c1ccccn1)c1ccccn1 [Dp44mT, di-2-pyridylketone 4,4-dimethyl-3-thiosemicarbazone, reference compound]"
2,1.9 % of the total,"CCN(C)C(=S)NN=C(c1ccccn1)c1ccccn1 [Dp4e4mT, di-2-pyridylketone-4-ethyl-4-methyl-3-thiosemicarbazone]"
3,4.8 % of the total,CCN(C)C([S-])=NN=C(c1ccccn1)c1ccccn1.CCN(C)C([S-])=NN=C(c1ccccn1)c1ccccn1.[Fe+3] [[Fe(Dp4e4mT)2]^+]

# Same assay, conditions: 10 μM, 3 h/37 °C, listed as Dp4e4mT Zn(II) complex
row,SMILES,oxy-Hb oxidation in erythrocytes versus the control (in words)
1,CCN(C)C([S-])=NN=C(c1ccccn1)c1ccccn1.CCN(C)C([S-])=NN=C(c1ccccn1)c1ccccn1.[Zn+2] [[Zn(Dp4e4mT)2]],no (p > 0.05) significant effect on oxy-Hb oxidation

# Source: paper PMC10793205, “Differential transmetallation of complexes of the anti-cancer thiosemicarbazone, Dp4e4mT: effects on anti-proliferative efficacy, redox activity, oxy-myoglobin and oxy-hemoglobin oxidation” (Chemical Science, 2023)
